In patent US5106868A, “Epoxycyclohexenone amides with antibacterial activity” (Kyowa Hakko Kogyo Kabushiki Kaisha, priority 1990, dated 1992):
Converted amounts (≈) assume the structure as drawn.

Legend:
[1] = test system: Bacillus subtilis No. 10707; experiment: Anti-bacterial activity, minimum inhibitory concentration by agar dilution method; assay type: cell-based; conditions: pH=7.0
Procedure: (§1) Minimum inhibitory concentration (μg/ml) was measured by the agar dilution method using a medium (pH=7.0) which was prepared by dissolving Bactotryptone medium (3 g; commercial product of Difco, U.S.A.), meat extract (3 g), yeast extract (1 g), glucose (1 g) and agar (16 g) in water (1 l).

[2] = test system: Candida albicans ATCC 10231; experiment: as above; assay type: cell-based; conditions: ATCC10231, pH=7.0
Procedure: as §1

[3] = test system: Enterococcus faecium ATCC 10541; experiment: as above; assay type: cell-based; conditions: ATCC10541, pH=7.0
Procedure: as §1

[4] = test system: Escherichia coli ATCC 26; experiment: as above; assay type: cell-based; conditions: ATCC26, pH=7.0
Procedure: as §1

[5] = test system: Klebsiella pneumonia ATCC 10031; experiment: as above; assay type: cell-based; conditions: Klebsiella pneumoniae, ATCC10031, pH=7.0
Procedure: as §1

[6] = test system: Pseudomonas aeruginosa Bin H No. 1; experiment: as above; assay type: cell-based; conditions: pH=7.0
Procedure: as §1

[7] = test system: Salmonella typhi ATCC 9992; experiment: as above; assay type: cell-based; conditions: Salmonella enterica, read-out: Minimum inhibitory concentration
Procedure: as §1

[8] = test system: Shigella sonnei ATCC 9290; experiment: as above; assay type: cell-based; conditions: ATCC9290, pH=7.0
Procedure: as §1

[9] = test system: Staphylococcus aureus ATCC 6538P; experiment: as above; assay type: cell-based; conditions: ATCC6538P, pH=7.0
Procedure: as §1

[10] = test system: MCF7 cells (ATCC HTB22); experiment: Anti-tumour activity, MCF7 cell growth inhibition (neutral red); assay type: cell-based; conditions: Homo sapiens, 72 hours, 37° C., absorptivity at 550 nm
Procedure: MCF7 cells (ATCC HTB22) was add to RPMI-1640 medium (commercial product of Gibco, U.S.A.) containing 10 % fetal calf serum, insulin (10 μg/ml) and estradiol (10^-8 M) (hereinafter referred to as medium A) to prepare a cell suspension containing 4.5×10^4 cell/ml.
On each occasion, 0.1 ml of the suspension was poured into each well of a 96 well microtitre plate and incubated at a temperature of 37° C. for 20 hours in a carbon dioxide incubator. Then a test compound (each 0.05 ml) was added to each well, followed by incubation similarly for 72 hours. After removal of the supernatant, another medium (0.1 ml) containing medium A and 0.02% neutral red was added to the material for incubating similarly for one hour to dye the cells. The supernatant was removed, and the residue was washed once with physiological Saline. Then the dyestuff was removed by using an aqueous solution of ethanol (30%) containing 0.001N hydrochloric acid.
The absorptivity at 550 nm of the material was measured by the use of a microplate reader. The absorptivity of the treated cells was compared with the absorptivity of untreated cells to measure the IC50 value viz. the concentration of the test compound required to inhibit the growth of the cells by 50%.

[11] = Solubility in various solvents; assay type: physicochemical; conditions: for Solubility in various solvents (soluble): organic solvents; for Solubility in various solvents (insoluble): water, n-hexane where named

| Compound | MIC [1] | MIC [2] | MIC [3] | MIC [4] | MIC [5] | MIC [6] | MIC [7] | MIC [8] | MIC [9] | IC50 [10] | Solubility in various solvents (soluble) [11] | Solubility in various solvents (insoluble) [11] |
| --- | --- | --- | --- | --- | --- | --- | --- | --- | --- | --- | --- | --- |
| CCCCC(C)/C=C(C)/C=C(\C)C(=O)NC1=CC(O)(/C=C/C=C/C=C/C(=O)NC2=C(O)CCC2=O)C2OC2C1=O (stereo not shown) [Manumycin, reference compound] | 0.3 µg/mL (≈ 0.545 µM) | 21 µg/mL (≈ 38.1 µM) | 2.6 µg/mL (≈ 4.72 µM) | > 100 µg/mL | > 100 µg/mL | > 100 µg/mL | > 100 µg/mL | > 100 µg/mL | 1.3 µg/mL (≈ 2.36 µM) | 8.3 µg/mL (≈ 15.1 µM) |  |  |
| CCCCC(C)/C=C(\C)C(=O)NC1=CC(=O)C2OC2C1=O (stereo not shown) [UCF1-AX] | 1.3 µg/mL (≈ 4.46 µM) | 10 µg/mL (≈ 34.3 µM) | 10 µg/mL (≈ 34.3 µM) | 21 µg/mL (≈ 72.1 µM) | 21 µg/mL (≈ 72.1 µM) | 83 µg/mL (≈ 285 µM) | 21 µg/mL (≈ 72.1 µM) | 10 µg/mL (≈ 34.3 µM) | 10 µg/mL (≈ 34.3 µM) | 18.9 µg/mL (≈ 64.9 µM) | Soluble in chloroform, methanol and diethyl ether | Insoluble in water |
| CCCCC(C)/C=C(\C)C(=O)NC1=CC(O)(/C=C/C=C/C=C/C(=O)NC2=C(O)CCC2=O)C2OC2C1=O (stereo not shown) [UCF1-A] | 10 µg/mL (≈ 19.6 µM) | > 100 µg/mL | 10 µg/mL (≈ 19.6 µM) | > 100 µg/mL | > 100 µg/mL | > 100 µg/mL | > 100 µg/mL | > 100 µg/mL | 2.6 µg/mL (≈ 5.09 µM) | 12.5 µg/mL (≈ 24.5 µM) | Soluble in chloroform, dimethylsulfoxide, ethyl acetate, methanol and acetone | Insoluble in n-hexane and water |
| CCCCC(C)/C=C(C)/C=C/C(=O)NC1=CC(=O)C2OC2C1=O (stereo not shown) [UCF1-BX] | 0.16 µg/mL (≈ 0.504 µM) | 42 µg/mL (≈ 132 µM) | 0.65 µg/mL (≈ 2.05 µM) | > 100 µg/mL | > 100 µg/mL | 83 µg/mL (≈ 262 µM) | > 100 µg/mL | > 100 µg/mL | 8.3 µg/mL (≈ 26.2 µM) | 7.5 µg/mL (≈ 23.6 µM) | Soluble in chloroform, methanol and diethyl ether | Insoluble in water |
| CCCCC(C)/C=C(C)/C=C/C(=O)NC1=CC(O)(/C=C/C=C/C=C/C(=O)NC2=C(O)CCC2=O)C2OC2C1=O (stereo not shown) [UCF1-B] | 1.3 µg/mL (≈ 2.42 µM) | > 100 µg/mL | 10 µg/mL (≈ 18.6 µM) | > 100 µg/mL | > 100 µg/mL | > 100 µg/mL | > 100 µg/mL | > 100 µg/mL | 2.6 µg/mL (≈ 4.85 µM) | 7.3 µg/mL (≈ 13.6 µM) | Soluble in chloroform, dimethylsulfoxide, ethyl acetate, methanol and acetone | Insoluble in n-hexane and water |
